Laboratory results from patent US5284999A, “DNA encoding a pituitary-specific thyroid hormone receptor” (Brigham and Women's Hospital, priority 1993, dated 1994).

Test system: r-ErbAβ-2 protein (PSTHR, pituitary-specific thyroid hormone receptor)
Experiment: Competition experiments with thyroid hormone analogs on r-ErbAβ-2 protein
Type: binding, rat

For `O=C(O)Cc1cc(I)c(Oc2ccc(O)c(I)c2)c(I)c1` [triac, 3,5,3'-triiodothyrocetic acid], which “affinity of the r-ErbAβ-2 protein (rank order among analogs)” value is on record?
The value was “greatest”.
